In patent publication US12036201B2, “Combination of a ubiquitin-conjugating enzyme complex inhibitor and antihypertensive and/or hypoglycemic drugs in diabetic kidney disease” (UNIVERSITÀ DEGLI STUDI DI BARI ALDO MORO, priority 2018, dated 2024):
Entries after “also recorded” stand apart in the source; their conditions may differ.

What was measured:
[1] = Clinical data of DBA/2J mice (controls and STZ diabetic): body weight, kidney weight, blood glucose, urinary volume; format: in vivo, mice (DBA/2J); design: Blood glucose at sacrifice: unit: mg/dl; conditions: for Kidney Weight: in g (unit assumed)
Protocol: The animal model employed is the murine model DBA/2J. 8-weeks-old mice received daily intraperitoneal injections for five consecutive days of either sodium citrate (females, control group) or streptozotocin (STZ, 45 mg/kg, pH4.5, dissolved in sodium citrate) for the study group (males). Only those animals showing a blood glucose level above 250 mg/dl were included in this study. Five weeks following the last STZ injection, animals were treated with NSC697923 dissolved in PBS (3 mg/kg, 3 times a week for 6 weeks) and/or […] (2 mg/kg, 3 times a week for 6 weeks) dissolved in DMSO 2% either alone or in combination [NSC697923 (3 mg/kg)+[…] (2 mg/kg) 3 times a week for 6 weeks]. Serum and 24 h urine samples were collected at the end of the treatment. Kidney samples were collected at sacrifice and immediately fixed in formalin and embedded in paraffin.

diabetic mice (STZ) [2] = test: Urinary albumin analysis (Mouse Albumin ELISA Kit) in 24 h urine; format: in vivo, mice (DBA/2J); conditions: for ug urine albumin 24 h: 24 h urine
Protocol: (§1) The animal model employed is the murine model DBA/2J. 8-weeks-old mice received daily intraperitoneal injections for five consecutive days of either sodium citrate (females, control group) or streptozotocin (STZ, 45 mg/kg, pH4.5, dissolved in sodium citrate) for the study group (males). Only those animals showing a blood glucose level above 250 mg/dl were included in this study. Five weeks following the last STZ injection, animals were treated with NSC697923 dissolved in PBS (3 mg/kg, 3 times a week for 6 weeks) and/or RAMIPRIL (2 mg/kg, 3 times a week for 6 weeks) dissolved in DMSO 2% either alone or in combination [NSC697923 (3 mg/kg)+RAMIPRIL (2 mg/kg) 3 times a week for 6 weeks]. Serum and 24 h urine samples were collected at the end of the treatment. Kidney samples were collected at sacrifice and immediately fixed in formalin and embedded in paraffin.
Urinary albumin concentration was measured in the urine of these animals using the commercially available Mouse Albumin ELISA Kit (Abcam). The urinary albumin values were normalized to the total urinary protein content compared to the total volume of urines produced during the 24 h before sacrifice.

[3] = system: α-sma expression in HK2 cells; test: Western blotting of α-sma in HK2 cells under high glucose; format: cell-based, human; conditions: Example 3, FIG. 3, high glucose 30 mM, NSC697923 1 μM, Ramipril 10 μM
Protocol: (§2) HK2 cells, a line of Renal Proximal Tubule Epithelial Cells (PTEC) obtained from a human control kidney, were purchased from the American Type Culture Collection (ATCC, Rockville, MD). Cells were cultured in DMEM growth medium low glucose (5.5 mM) with the addition of 10% fetal bovine serum (FBS), 1% Penicillin and Streptomycin and 1% L-Glutamine (Sigma-Aldrich, Munich, Germany). Prior to each passage, cells reaching confluence were rinsed with phosphate-buffered saline (PBS), trypsinized with Trypsin 0.05% and Ethylenediaminetetraacetic acid (EDTA) 0.02% in PBS and seeded in complete growth medium with or without the addition of D-Glucose 24.5 mM (final concentration in hyperglycemia HG=30 mM) or L-Glucose 24.5 mM as osmolarity control, for each predetermined time point. Cells were then incubated at 37° C. in 5% CO2.
Cells were plated in six-well plates and incubated to reach confluence. Cells were then exposed to either D- or L-Glucose at a concentration of 30 mM for the indicated time point. […]
By western blotting on cultured immortalized renal tubular cells (HK2) we evaluated the protein expression levels of α-sma, a marker of epithelial-to-mesenchymal transition.

[4] = system: α-sma expression in HK2 cells; test: Immunofluorescence/confocal microscopy of α-sma in HK2 cells under high glucose; format: cell-based, human; conditions: NSC697923 1 μM
Protocol: as §2
(§3) The cellular distribution of the proteins showing lysine63-linked ubiquitylation and the expression of the mesenchymal marker α-sma was evaluated in HK2 cells through indirect immunofluorescence and confocal microscopy analysis following incubation with specific antibodies. For each condition, 150.000 cells were plated on sterile glass slides and then incubated with D- or L-Glucose 30 mM for the indicated time point. In some predetermined conditions, the specific inhibitor of Lysine63-linked ubiquitylation, NSC697923, was pre-incubated at a 1 μM final concentration, 1 h prior to the addition of glucose and/or the ACE-inhibitor Ramipril at a final concentration of 10 μM and/or the SGLT2 inhibitor Empaglifozin at a 500 nM final concentration. Following stimulation, HK2 were fixed 15 min in paraformaldehyde 4%, treated 5 min with Triton-X 100 0.1% in PBS, and incubated 1 h in blocking buffer (goat serum 4%+BSA 2%). Cells were then incubated 1 h with the specific antibodies against α-sma and lysine63 ubiquitin diluted in blocking buffer. The antigen-antibody complex was then identified using a secondary fluorescent antibody (specifically Alexa Fluor 555 goat anti-rabbit and Alexa Fluor 488 goat anti-mouse). Prior to the incubation with the secondary antibody, cells were rinsed three times in PBS. Cells nuclei were then stained using TO-PRO-3 diluted in PBS and slides were mounted. The negative control was obtained incubating cells in blocking without the addition of the primary antibody. The fluorescence signal was then acquired using the Leica TCS SP2 confocal microscope and images were saved at a 63× zoom using the microscope software. Signal was finally quantified measuring the area % of fluorescent signal compared to the background.

[5] = system: Lysine 63 ubiquitinated proteins in HK2 cells; test: Immunofluorescence/confocal microscopy of lysine 63 ubiquitinated proteins in HK2 cells under high glucose; format: cell-based, human; conditions: high glucose 30 mM, NSC697923 1 μM
Protocol: as §2, §3

[6] = system: Lysine 63 ubiquitinated proteins (Lys63-Ub); test: Immunohistochemistry of lysine 63 ubiquitinated proteins on renal tissue; format: in vivo, mice (DBA/2J); conditions: diabetic mice (STZ)
Protocol: Tissue samples were obtained from kidney of DBA/2J mice. Following sacrifice, tissues were fixed in 4% formaldehyde. In order to evaluate the accumulation of proteins undergoing Lysisine63-linked ubiquitylation through immunohistochemistry, dewaxed and unmasked sections were incubated 10 min in H2O2 and 5 min in Triton 0.25% at ambient temperature. Sections were then blocked 10 min with Protein block (Dako, Glostrup, Denmark) and then incubated 1 h with the specific antibody against and lysine63-linked ubiquitylation. […] Sections were stained with hematoxylin and slides were mounted with glycerol. The negative control sample lacks the primary antibody incubation step. The signal is then quantified using the Positive Pixel Count v9_v10.0.0.1805 algorithm (Aperio Technologies) that measures the number of […].
The animal model employed is the murine model DBA/2J. […]
(§4) Lysine 63 ubiquitinated proteins accumulation has been evaluated by immunohistochemistry on renal tissues from the mice model of diabetic nephropathy (DBA/2J mice+streptozotocin-STZ); the degree of fibrosis in these samples has been evaluated by Sirius Red Fast Green staining.

diabetic mice (STZ) [7] = test: Sirius Red/Fast Green staining of tubular-interstitial fibrosis in kidney; format: in vivo, mice (DBA/2J)
Protocol: Tissue samples were obtained from kidneys of DBA/2J mice following sacrifice. Tissue was fixed in 4% formaldehyde. Following dewaxing and hydration, sections were incubated with Bouin's solution overnight at ambient temperature. Sections were then rinsed using running tap water to remove all the fixative residues and incubated 1 h at ambient temperature with the Sirius Red/Fast Green dye combination 1:1.
as §1, with “Serum and 24 h urine samples were collected at the end of the treatment. Kidney samples were collected at sacrifice and immediately fixed in formalin and embedded in paraffin.” left out
as §4

[8] = system: immortalized human renal tubular cells HK2; conditions: in vitro cellular model of HK2 cells; Pontrelli et al. FASEB J 2017; cited from earlier work
[9] = Table 2, diabetic (STZ) DBA/2J mice, NSC697923 3 mg/kg and/or Ramipril 2 mg/kg 3 times a week for 6 weeks
[10] = Table 2, non-diabetic DBA/2J mice, NSC697923 3 mg/kg and/or Ramipril 2 mg/kg 3 times a week for 6 weeks
[11] = Example 4, FIG. 4b, Ramipril 10 μM
[12] = Table 1, diabetic (STZ) DBA/2J mice, NSC697923 3 mg/kg 3 times a week for 6 weeks
[13] = Table 1, non-diabetic DBA/2J mice, NSC697923 3 mg/kg 3 times a week for 6 weeks
[14] = Example 6, FIG. 6, compared to untreated diabetic mice or mice treated with ACE inhibitors alone
[15] = Example 8, FIG. 8a, high glucose 30 mM, Empaglifozin 500 nM
[16] = Example 8, FIG. 8b, Empaglifozin 500 nM

CCOC(=O)[C@H](CCc1ccccc1)N[C@@H](C)C(=O)N1[C@H](C(=O)O)C[C@@H]2CCC[C@@H]21 [RAMIPRIL, Ramipril]
Blood glucose at sacrifice [1, 9]: 555.71 ± 71.48
Urinary Volume (mL/24 h) [1, 9]: 29.64 ± 9.51 mL/24 h
Kidney Weight [1, 9]: 0.37 ± 0.054
Blood glucose at sacrifice [1, 10]: 112 ± 9.14
Kidney Weight [1, 10]: 0.242 ± 0.027
ug urine albumin 24 h (diabetic mice (STZ) [2]; [9]): 388.79 ± 79.78 µg
ug urine albumin 24 h (diabetic mice (STZ) [2]; [10]): 128.54 ± 55.94 µg
α-sma expression (western blotting, normalized to actin) [3]: have no effect
α-sma expression (confocal microscopy) ([4]; Examples 4 and 5, FIGS. 4a and 5, high glucose 30 mM, Ramipril 10 μM, listed as ACE inhibitors): do not block; also recorded: do not reduce
accumulation of lysine 63 ubiquitinated proteins (confocal microscopy) [5, 11]: do not reduce

Cc1ccc(S(=O)(=O)c2ccc([N+](=O)[O-])o2)cc1 [NSC697923, 2-(4-methylphenyl)sulfonyl-5-nitrofuran]
Blood glucose at sacrifice [1, 12]: 540.5 ± 33.05
Urinary Volume (mL/24 h) [1, 12]: 25.83 ± 12.58 mL/24 h
Kidney Weight [1, 12]: 0.33 ± 0.079
Blood glucose at sacrifice [1, 13]: 118.8 ± 10.44
Urinary Volume (mL/24 h) [1, 13]: 0.33 ± 0.17 mL/24 h
Kidney Weight [1, 13]: 0.24 ± 0.018
Blood glucose at sacrifice [1, 9]: 594.28 ± 7.95
Urinary Volume (mL/24 h) [1, 9]: 24.85 ± 7.78 mL/24 h
Kidney Weight [1, 9]: 0.38 ± 0.05
effect on urinary albuminuria (diabetic mice (STZ) [2]; Example 2, first group of animals, treated diabetic mice (STZ+NSC697923) compared to untreated diabetic mice (STZ)): has no effect; also recorded: not able to reduce
ug urine albumin 24 h (diabetic mice (STZ) [2]; [12]): 724.25 ± 690.89 µg
ug urine albumin 24 h (diabetic mice (STZ) [2]; [9]): 439.29 ± 211.2 µg
accumulation of lysine 63 ubiquitinated proteins in kidney ([6]; Example 1, FIG. 1, NSC697923 3 mg/kg 3 times a week for 6 weeks, vs untreated STZ): significantly reduces
accumulation of lysine 63 ubiquitinated proteins in kidney [6, 14]: significant reduction
degree of tubular-interstitial fibrosis (Sirius Red Fast Green) (diabetic mice (STZ) [7]; Example 1, FIGS. 1 and 2, NSC697923 3 mg/kg 3 times a week for 6 weeks, vs untreated STZ, 3 mg/kg): significantly reduces; also recorded: capable of reducing
degree of fibrosis (Sirius Red Fast Green) (diabetic mice (STZ) [7]; [14]): significant reduction
α-sma expression (western blotting, normalized to actin) [3]: reduced
α-sma expression (confocal microscopy) [4, 15]: reduces both processes
α-sma expression (confocal microscopy) ([4]; Examples 4 and 5, FIGS. 4a and 5, high glucose 30 mM, Ramipril 10 μM): reduces both processes; also recorded: able to inhibit
accumulation of lysine 63 ubiquitinated proteins (confocal microscopy) [5, 11]: reduces both processes
accumulation of lysine 63 ubiquitinated proteins (confocal microscopy) [5, 16]: reduces both processes
epithelial to mesenchymal transition [8]: blocks

OC[C@H]1O[C@@H](c2ccc(Cl)c(Cc3ccc(O[C@H]4CCOC4)cc3)c2)[C@H](O)[C@@H](O)[C@@H]1O [SGLT2 receptor inhibitors, Empaglifozin]
α-sma expression (confocal microscopy) [4, 15]: partially reduce
accumulation of lysine 63 ubiquitinated proteins (confocal microscopy) [5, 16]: do not reduce
